Patent publication US10226458B2, “Pharmaceutical compositions comprising sorbitan esters” (Alkermes Pharma Ireland Limited, priority 2011, dated 2019)
Each block holds one molecule with its values, some of them ahead of it.

Key:
rats = assay: Subcutaneous injection site reaction model; settings: single SC injection, Day 10, formulations comprising sorbitan laurate compared to formulations with no sorbitan laurate (FIGS. 8A, 8B)
[1] = Solubility of Compound A-7 in vehicles containing varying amounts of sorbitan monolaurate; type: physicochemical; settings: 10 mM phosphate buffer, 0.2% polysorbate 20, saline, 0%-0.75% sorbitan laurate, 25° C., HPLC (FIG. 9)
Protocol: • a. Injection vehicles comprised of ca. 10 mM phosphate buffer, 0.2% polysorbate 20, saline and various amount of sorbitan laurate (0%-0.75%) were prepared. The injection vehicles were stirred for 4 hours before preparing suspension preparation. • b. Approximately 1.25±0.05 g of Compound A-7 were added to 15 mL injection vehicles in a 20-mL glass scintillation vial with a ⅞″× 5/16″ stirring bar. The suspension was vigorously stirred on Chemglass CG-1990-T-50 hotplate at 25° C. which was controlled using a thermal sensor. • c. At each time point, a total of 3 mL of -mixed suspension were transferred into two 1.5-mL centrifuge tubes using a plastic pipette. The tubes were centrifuged at 14,000 rpm for 4 minutes. The supernatant of both tubes were combined and centrifuged again at 14,000 rpm for 4 minutes. The HPLC sample was then prepared with final (2nd) centrifuged supernatant by diluting 0.4 mL supernatant with 0.6 mL THF. • d. Concentration of dissolved Compound A-7 was determined using HPLC.

[2] = Previous experiments on wetting of Compound A-7 solids load by polysorbate 20; type: physicochemical; settings: 25.6 wt % solids load of Compound A-7 bulk recrystallized drug substance
[3] = Wettability characterization: free energy of immersion and spreading coefficient of Compound A-7 in injection vehicles; type: physicochemical; settings: recrystallized Compound A-7 against the named injection vehicle formulation; predicted from vehicle surface tension and solid surface energy
From the text: A surface energy measurement methodology was developed that would allow for facile screening of formulation candidates with minimal use of drug substance. These experiments utilize the surface tension of the injection vehicle and surface energy of the solid to predict the immersional free energy and spreading coefficient between the liquid and the solid.
A force-balance tensiometer (Attension Sigma® 701) with a platinum Wilhelmy plate was used to measure the surface energy (tension) of the vehicle of interest. This was done using a 30 mL sample of the vehicle of interest and taking 8 individual surface tension measurements. The first 3 measurements were discarded as being non-representative of equilibrium conditions, and the remaining measurements were averaged to give the surface tension value. […] To then obtain the polar and non-polar (dispersive) components of the surface tension, a polytetrafluoroethylene (PTFE) contact angle standard (Rame-Hart) was affixed to the tensiometer and the dynamic contact angle was measured. […]
With the total surface tension of the liquid, and the contact angle of the liquid on a non-polar surface with known surface energy attributes, the polar and dispersive components of the surface tension were calculated. […]

[4] = cited from earlier work

Molecule: Cc1cc2c(s1)Nc1ccccc1N=C2N1CCN(C)CC1.O.O=C(O)c1cc2ccccc2c(Cc2c(O)c(C(=O)O)cc3ccccc23)c1O [olanzapine pamoate]
injection site reaction (weight of excised ISR) (rats): significant reduction in injection site reaction

Molecule: CCCCCCCCCCCC(=O)OCN1C(=O)CCc2ccc(OCCCCN3CCN(c4cccc(Cl)c4Cl)CC3)cc21 [Compound A-7, (7-(4-(4-(2,3-dichlorophenyl)piperazin-1-yl)butoxy)-2-oxo-3,4-dihydroquinolin-1(2H)-yl)methyl dodecanoate]
solubility (concentration of dissolved Compound A-7) [1]: decreases solubility up to 0.5 wt % SML with solubility increasing again above 0.5 wt. % | polysorbate 20 required to adequately wet the drug substance [2]: at least 0.1%

FREE ENERGY OF IMMERSION [3]: 10 mN/m | SPREADING COEFFICIENT [3]: −83.3 mN/m
Molecule: Water

Molecule: O=C1CCc2ccc(OCCCCN3CCN(c4cccc(Cl)c4Cl)CC3)cc2N1 [aripiprazole (free base), 7-{4-[4-(2,3-dichlorophenyl)-1-piperazinyl]butoxy}-3,4-dihydro-2(1H)-quinolinone]
injection site reaction (weight of excised ISR) (rats): significant reduction in injection site reaction | tissue irritation ([4]; following IM and SC injection): unacceptable (moderate to severe) tissue irritation | pharmacokinetic profile ([4]; long-acting injections): prolonged pharmacokinetic profile
